Patent publication US8093273B2, “Flavanoids and isoflavanoids for the prevention and treatment of cardiovascular diseases” (Resverlogix Corp., priority 2004, dated 2012)
Where two headings read alike, the source gives them in different places.

Tested on: hApoA-I transgenic mice
Experiment: hApoA-I transgenic mice, oral gavage for 14 days
Assay type: in vivo
Settings: Mus musculus, po, 336 h, relative to pretreatment, read-out: ApoA-I (% change); for change in vivo at 10 mg/kg: 10 mg/kg BID 14 days
Outline: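 Male hApoA-I transgenic mice (7–8 weeks) dosed orally by gavage daily for 14 days, BID or SID, as suspensions at 5 mL/kg in 0.5% methylcellulose/1% Tween 80 or F-101; fenofibrate 100 mg/kg as positive control. After a 4 h fast on day 15, plasma ApoA-I, HDL-C, total cholesterol and triglycerides measured relative to pre-bleed-matched groups.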

Molecule `O=c1cc(-c2ccc(O)cc2)oc2ncccc12` [Example 34, 2-(4-Hydroxy-phenyl)-pyrano[2,3-b]pyridin-4-one] has a change in vivo at 3 mg/kg (Table 6 first group, 3 mg/kg BID 14 days, Control 1 (0.5% MC & 1% Tween 80) 11.94) of 18.9%, a change in vivo at 10 mg/kg (Table 6 first group, Control 1 11.94) of 36.6% and a change in vivo at 30 mg/kg (Table 6 first group, 30 mg/kg BID 14 days, Control 1 11.94) of 47.5%. The change in vivo at 10 mg/kg (Table 6 third group, Control 3 (F-101) (6.32)) was 30.9%.
